# According to PubChem BioAssay AID743309 (Sanford-Burnham Center for Chemical Genomics, 2014):
# Calls of active or inactive are those of the source.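 How the source made its calls: active means IC50 at or below 20 µM; inactive means the rest.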
# Biological target: Tyrosine-protein phosphatase non-receptor type 22 (Homo sapiens) (UniProt Q9Y2R2)
# Experiment: PTPN22 enzyme inhibitor analogs – biochemical, fluorescence, LYP catalytic domain, selectivity assay for LMPTP inhibitor project, SAR follow-up (AID 743309)
# Conditions: recombinant LYP catalytic domain, OMFP fluorescence
# Chain of Tyrosine-protein phosphatase non-receptor type 22 (Homo sapiens) (Q9Y2R2 whole entry, looked up, the tested form may be a part): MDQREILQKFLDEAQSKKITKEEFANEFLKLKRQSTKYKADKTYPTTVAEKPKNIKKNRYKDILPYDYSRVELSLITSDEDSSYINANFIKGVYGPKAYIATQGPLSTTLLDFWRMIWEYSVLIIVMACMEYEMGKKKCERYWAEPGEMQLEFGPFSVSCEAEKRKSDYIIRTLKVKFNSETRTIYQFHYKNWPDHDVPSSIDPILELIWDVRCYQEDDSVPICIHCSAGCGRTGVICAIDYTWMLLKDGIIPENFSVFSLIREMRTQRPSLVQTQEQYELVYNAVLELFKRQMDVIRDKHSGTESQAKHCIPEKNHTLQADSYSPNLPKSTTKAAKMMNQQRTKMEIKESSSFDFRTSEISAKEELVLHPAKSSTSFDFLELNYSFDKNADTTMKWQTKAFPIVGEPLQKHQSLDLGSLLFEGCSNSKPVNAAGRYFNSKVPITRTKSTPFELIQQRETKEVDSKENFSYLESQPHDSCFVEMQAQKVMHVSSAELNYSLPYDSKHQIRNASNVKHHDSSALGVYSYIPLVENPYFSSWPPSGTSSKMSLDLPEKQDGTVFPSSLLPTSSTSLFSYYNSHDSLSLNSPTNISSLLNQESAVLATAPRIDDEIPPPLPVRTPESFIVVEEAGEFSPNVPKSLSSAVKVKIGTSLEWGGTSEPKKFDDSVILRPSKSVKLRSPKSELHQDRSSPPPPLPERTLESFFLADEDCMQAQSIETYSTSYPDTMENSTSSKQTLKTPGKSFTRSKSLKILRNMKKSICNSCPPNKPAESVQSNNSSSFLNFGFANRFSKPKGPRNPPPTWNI
row,Compound,IC50
1,c1ccc(-c2nc(N3CCCC3)c3ccccc3n2)cc1,> 80 µM (inactive)
2,c1ccc(-c2nc(NCCCn3ccnc3)c3ccccc3n2)cc1,> 80 µM (inactive)
3,Fc1ccc(-c2cc(NCCCN3CCCCC3)c3ccccc3n2)cc1,> 80 µM (inactive)
4,c1ccc(-c2nc(NC3CC3)c3ccccc3n2)cc1,> 80 µM (inactive)
5,c1ccc(-c2nc(N3CCSCC3)c3ccccc3n2)cc1,> 80 µM (inactive)
6,c1ccc(-c2nc(NC3CCCCC3)c3ccccc3n2)cc1,> 80 µM (inactive)
7,Cc1ccc(-c2cc(NCCCN3CCCCC3)c3ccccc3n2)cc1,> 80 µM (inactive)
8,CC1CCN(c2nc(-c3ccccc3)nc3ccccc23)CC1,> 80 µM (inactive)
9,c1ccc(-c2nc(N3CCOCC3)c3ccccc3n2)cc1,> 80 µM (inactive)
10,c1ccc2c(NCCCN3CCCCC3)cc(-c3ccncc3)nc2c1,> 80 µM (inactive)
11,Clc1ccc(-c2cc(NCCCN3CCCCC3)c3ccccc3n2)cc1,> 80 µM (inactive)
12,Fc1ccccc1-c1nc(NC2CCCC2)c2ccccc2n1,> 80 µM (inactive)
13,COc1cc2nc(-c3ccccc3)cc(NCCCN3CCCCC3)c2cc1OC,> 80 µM (inactive)
14,c1ccc(-c2cc(NCCCN3CCCCC3)c3ccccc3n2)cc1,> 80 µM (inactive)
15,Fc1cccc(-c2cc(NCCCN3CCCCC3)c3ccccc3n2)c1,> 80 µM (inactive)
16,c1ccc(-c2nc(NC3CCCC3)c3ccccc3n2)cc1,> 80 µM (inactive)
17,Cc1ccc(-c2nc(NCc3cccnc3)c3ccccc3n2)cc1,> 80 µM (inactive)
18,COc1ccc(-c2cc(NCCCN3CCCCC3)c3ccccc3n2)cc1,> 80 µM (inactive)
19,O=C(OCCNc1nc(-c2ccccc2)nc2ccccc12)c1cccnc1,> 80 µM (inactive)
20,c1ccc(-c2cc(N3CCCCC3)c3ccccc3n2)cc1,> 80 µM (inactive)

row,Compound,IC50
1,CC(C)CNc1nc(-c2ccccc2)nc2ccccc12,> 80 µM (inactive)
2,Cc1cccc(-c2nc(NCCCN3CCOCC3)c3ccccc3n2)c1,> 80 µM (inactive)
3,CN(C)CCNc1nc(-c2ccccc2)nc2ccccc12,> 80 µM (inactive)
4,c1ccc(-c2nc(NCc3cccnc3)c3ccccc3n2)cc1,> 80 µM (inactive)
5,Clc1cccc(Cl)c1Cn1cnc(=NCc2ccco2)c2[nH]cnc21,> 80 µM (inactive)
6,c1ccc(-c2nc(NCCN3CCCCC3)c3ccccc3n2)cc1,> 80 µM (inactive)
7,c1ccc(-c2nc(NCCN3CCOCC3)c3ccccc3n2)cc1,> 80 µM (inactive)
8,Nc1nc(N)c(Cc2ccc(Cl)cc2Cl)c(N)n1,> 80 µM (inactive)
9,COc1cccc(-c2cc(NCCCN3CCCCC3)c3ccccc3n2)c1,> 80 µM (inactive)
10,Clc1ccccc1-c1cc(NCCCN2CCCCC2)c2ccccc2n1,> 80 µM (inactive)
11,Cc1ccc(-c2nc(NCCN3CCOCC3)c3ccccc3n2)cc1,> 80 µM (inactive)
12,CC(C)OCCCNc1nc(-c2ccccc2)nc2ccccc12,> 80 µM (inactive)
13,c1ccc(-c2nc(N3CCCCCC3)c3ccccc3n2)cc1,> 80 µM (inactive)
14,CC(C)Nc1nc(-c2ccccc2)nc2ccccc12,> 80 µM (inactive)
15,c1ccc(-c2nc(N3CCCCC3)c3ccccc3n2)cc1,> 80 µM (inactive)
16,Cc1ccc2nc(-c3ccccc3)cc(NCCCN3CCCCC3)c2c1,> 80 µM (inactive)
17,CCN(CC)c1nc(-c2ccccc2)nc2ccccc12,> 80 µM (inactive)
18,Brc1ccc2nc(-c3ccccc3)cc(NCCCN3CCCCC3)c2c1,> 80 µM (inactive)
19,CCc1nc(N)nc(N)c1-c1ccc(Cl)cc1,> 80 µM (inactive)
20,O=C(OCCNc1nc(-c2ccccc2)nc2ccccc12)c1ccncc1,> 80 µM (inactive)

row,Compound,IC50
1,c1ccc(-c2nc(NCCCN3CCOCC3)c3ccccc3n2)cc1,> 80 µM (inactive)
2,FC(F)(F)c1cccc(-c2cc(NCCCN3CCCCC3)c3ccccc3n2)c1,> 80 µM (inactive)
3,c1ccc(-c2nc(NCCN3CCCC3)c3ccccc3n2)cc1,> 80 µM (inactive)
4,c1ccc(-c2nc(NCCCN3CCCCC3)c3ccccc3n2)cc1,> 80 µM (inactive)
5,c1ccc(-c2cc(NCCCN3CCOCC3)c3ccccc3n2)cc1,> 80 µM (inactive)
6,CCCCNc1nc(-c2ccccc2)nc2ccccc12,> 80 µM (inactive)
7,CN(C)CCNc1cc(-c2ccccc2)nc2ccccc12,> 80 µM (inactive)
8,COc1ccccc1-c1cc(NCCCN2CCCCC2)c2ccccc2n1,> 80 µM (inactive)
9,CN1CCN(c2nc(-c3ccccc3)nc3ccccc23)CC1,> 80 µM (inactive)
10,Clc1cccc(-c2cc(NCCCN3CCCCC3)c3ccccc3n2)c1,> 80 µM (inactive)
11,Fc1ccc2nc(-c3ccccc3)cc(NCCCN3CCCCC3)c2c1,> 80 µM (inactive)
12,Cc1c(CCC(=O)O)c(=O)oc2c(C)c(OCc3ccccc3Cl)ccc12,15.7 µM
13,c1ccc(-c2cc(SCCCN3CCCCC3)c3ccccc3n2)cc1,> 80 µM (inactive)
14,c1ccc(-c2cc(NCCN3CCCCC3)c3ccccc3n2)cc1,> 80 µM (inactive)
15,c1ccc(-c2cc(NCCN3CCCC3)c3ccccc3n2)cc1,> 80 µM (inactive)
16,Fc1ccccc1-c1nc(NCCCN2CCOCC2)c2ccccc2n1,> 80 µM (inactive)
17,c1ccc(-c2cc(OCCCN3CCCCC3)c3ccccc3n2)cc1,> 80 µM (inactive)
18,c1ccc(-c2cc(NCCN3CCOCC3)c3ccccc3n2)cc1,> 80 µM (inactive)
19,COc1ccccc1CNc1ncnc2ccsc12,> 80 µM (inactive)
